These results are taken from US8361996B2, “Imidazolyl substituted steroidal and indan-1-one derivatives” (Council of Scientific and Industrial Research, priority 2005, dated 2013).

Like-named read-outs stand apart in the source and are kept apart here.

For one data set, the target named is T1, aromatase (CYP19) (Homo sapiens, UniProt P11511).
T1 construct: The enzyme was obtained from the microsomal fraction of freshly delivered human term placental tissue; from tissue; host or cells: human term placenta, microsomal fraction
T1 sequence (P11511 1-503): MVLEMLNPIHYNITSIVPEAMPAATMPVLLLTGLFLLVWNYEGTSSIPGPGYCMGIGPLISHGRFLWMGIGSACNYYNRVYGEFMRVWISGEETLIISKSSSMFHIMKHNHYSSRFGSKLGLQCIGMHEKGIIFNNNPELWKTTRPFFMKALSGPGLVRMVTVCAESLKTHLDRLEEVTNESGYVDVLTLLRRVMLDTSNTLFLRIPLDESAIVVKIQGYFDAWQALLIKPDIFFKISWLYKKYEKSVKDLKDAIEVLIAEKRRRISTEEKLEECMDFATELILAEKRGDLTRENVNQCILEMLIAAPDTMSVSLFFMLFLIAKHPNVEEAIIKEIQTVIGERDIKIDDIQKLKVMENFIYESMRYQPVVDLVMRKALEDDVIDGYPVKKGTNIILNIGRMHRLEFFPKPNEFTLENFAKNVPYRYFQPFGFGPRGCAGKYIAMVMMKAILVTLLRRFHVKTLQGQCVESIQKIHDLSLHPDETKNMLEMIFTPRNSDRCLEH
Description: Inhibition of aromatase, human placental microsomes, 3H2O release. In kind it is biochemical.

The mark [1] stands for this setting: Substrate: 1β 3H-androstenedione/androstenedione 500 nm.
Setting [2] is: human placental microsomes and [1β,2β-3H] testosterone.

With `COc1cc(C=C2C[C@H]3[C@@H]4CC=C5C[C@@H](O)CC[C@]5(C)[C@H]4CC[C@]3(C)C2=O)ccc1OCCCn1ccnc1`, the melting point was in the range of 199 to 201 °C.
On to `COc1cc(C=C2C[C@H]3[C@@H]4CC=C5C[C@@H](OC(C)=O)CC[C@]5(C)[C@H]4CC[C@]3(C)C2=O)ccc1OCCCn1ccnc1`, for which the melting point is 109 to 111 °C.
Same read-out and setting: next, `COc1cc(C=C2C[C@H]3[C@@H]4CC=C5C[C@@H](OC(C)=O)CC[C@]5(C)[C@H]4CC[C@]3(C)[C@H]2OC(C)=O)ccc1OCCCn1ccnc1`: 163 to 168 °C; `C[C@]12CC[C@H](O)CC1=CC[C@@H]1[C@@H]2CC[C@]2(C)C(=O)C(=Cc3cccc(OCCCn4ccnc4)c3)C[C@@H]12`: 211 to 212 °C.
Consider `CC(=O)O[C@H]1CC[C@@]2(C)C(=CC[C@H]3[C@@H]4CC(=Cc5cccc(OCCCn6ccnc6)c5)[C@H](OC(C)=O)[C@@]4(C)CC[C@@H]32)C1`, for which the melting point lay in the range of 97 to 99 °C.
On the same count and under the same terms, as for `C[C@]12CC[C@H]3[C@@H](CC=C4C[C@@H](O)CC[C@@]43C)[C@@H]1C[C@H](n1ccnc1)[C@@H]2O`, the figure is 285 to 287 °C.
The same measure, in the same setting: as for `CC(=O)O[C@H]1CC[C@@]2(C)C(=CC[C@H]3[C@@H]4C[C@H](n5ccnc5)[C@H](OC(C)=O)[C@@]4(C)CC[C@@H]32)C1`, the figure is 197 to 199 °C.
Turning to `O=C1/C(=C/c2cccc(OCCCn3ccnc3)c2)Cc2ccccc21` [Compound 2, 2-[3-(3-Imidazol-1-yl-propoxy)-benzylidene]-indan-1-one], the melting point is 48 to 50 °C. Besides, the “Inhibition on CYP19a RP: Relative potency; relative to aminoglutethimide (=1)” value (“Inhibition on CYP19a RP: Relative potency … (=1)” for short) on aromatase (CYP19) (setting [1]) turned out to be 42.5. For the same compound, the “aromatase inhibitory activity (in words)” value on aromatase (CYP19) (setting [2]) is on record as “good aromatase inhibitory activity”.
`O=C1/C(=C/c2ccccc2OCCCn2ccnc2)Cc2ccccc21` [Compound 4, 2-[2-(3-Imidazol-1-yl-propoxy)-benzylidene]-indan-1-one] had a melting point of 76 to 78 °C. For the same compound, the “Inhibition on CYP19a RP: Relative potency … (=1)” value on aromatase (CYP19) (setting [1]) came out at 26.6. The “aromatase inhibitory activity (in words)” value on aromatase (CYP19) (setting [2]) is recorded as “good aromatase inhibitory activity”.
The matching figures for `COc1ccc(/C=C2\Cc3ccccc3C2=O)cc1OCCCn1ccnc1` [Compound 6, 2-[3-(3-Imidazol-1-ylpropoxy)-4-methoxybenzylidene)indan-1-one]: 176 to 180 °C, 22.5 and “good aromatase inhibitory activity”.
As to `COc1cc(/C=C2\Cc3ccccc3C2=O)ccc1OCCCn1ccnc1` [Compound 8, 2-[4-(3-Imidazol-1-ylpropoxy)-3-methoxybenzylidene)indan-1-one], the melting point is 123 to 127 °C. At aromatase (CYP19) (setting [1]), the “Inhibition on CYP19a RP: Relative potency … (=1)” value came to 54.1. In addition, the “aromatase inhibitory activity (in words)” value on aromatase (CYP19) (setting [2]) is “good aromatase inhibitory activity”. Also, at aromatase (CYP19) (human placental microsomes and [1β,2β-3H] testosterone, read-out: IC50 for the aromatase inhibitory activity), the IC50 stood at 0.55 µM.
The compound `O=C1C(=Cc2cccc(OCCn3ccnc3)c2)Cc2ccccc21` [Compound 10, 2-[3-(2-Imidazol-1-ylethoxy)-benzylidene]indan-1-one] yielded a melting point of 218 to 220 °C.
Regarding `COc1cc(/C=C2\C[C@H]3[C@@H]4CC=C5C[C@@H](O)CC[C@]5(C)[C@H]4CC[C@]3(C)[C@H]2O)ccc1OCCCn1ccnc1` [Compound 14, 16-[4-{3-(Imidazol-1-yl)propoxy}-3-methoxybenzylidene]-5-androstene-3β,17β-diol], on aromatase (CYP19) (setting [1]), the “Inhibition on CYP19a RP: Relative potency … (=1)” value came to 12.4. On aromatase (CYP19) (setting [2]), the “aromatase inhibitory activity (in words)” value is on record as “significant aromatase inhibitory activity”.
`C[C@]12CC[C@H]3[C@@H](CC=C4C[C@@H](O)CC[C@@]43C)[C@@H]1C/C(=C\c1cccc(OCCCn3ccnc3)c1)[C@@H]2O` [Compound 20, 16-[3-{3-(imidazol-1-yl)propoxy}benzylidene]-5-androstene-3β,17β-diol] yielded a melting point of 133 to 135 °C. Also, the “Inhibition on CYP19a RP: Relative potency … (=1)” value on aromatase (CYP19) is reported as “IC50: 9.1 μM RP: 3.3”. Besides, the IC50 on aromatase (CYP19) (Substrate: 1β 3H-androstenedione/androstenedione 500 nm, read-out: Inhibition on CYP19a IC50) amounted to 9.1 µM. In addition, the “aromatase inhibitory activity (in words)” value on aromatase (CYP19) (setting [2]) was “significant aromatase inhibitory activity”.
Consider `C[C@]12CCC(=O)C=C1CCC1C2CC[C@]2(C)C(=O)/C(=C/c3cccc(OCCCn4ccnc4)c3)CC12` (stereo partly drawn) [Compound 22, 16-[3-{3-(imidazol-1-yl)propoxy}benzylidene]-4-androstene-3,17-dione], for which, at aromatase (CYP19) (setting [2]), the “aromatase inhibitory activity (in words)” value is given as “significant aromatase inhibitory activity”.
Compound `CC(=O)O[C@H]1CC[C@@]2(C)C(=C/C(=N\OCCCn3ccnc3)[C@H]3[C@@H]4CC[C@H](OC(C)=O)[C@@]4(C)CC[C@@H]32)C1` [Compound 24, 7-[O-{3-(imidazol-1-yl)propyl}oximino]-5-androstene-3β,17β-diol diacetate] yielded a melting point of 180 to 182 °C. At aromatase (CYP19), this compound yielded an IC50 of 3.1 µM. Besides, the “Inhibition on CYP19a RP: Relative potency … (=1)” value on aromatase (CYP19) (setting [1]) is reported as “IC50: 3.1 μM RP: 9.6”. For the same compound, the “aromatase inhibitory activity (in words)” value on aromatase (CYP19) (setting [2]) is reported as “significant aromatase inhibitory activity”.
Turning to `C[C@]12CC[C@H]3[C@@H](/C(=N\OCCCn4ccnc4)C=C4C[C@@H](O)CC[C@@]43C)[C@@H]1CC[C@@H]2O` [Compound 25, 7-[O-{3-(Imidazol-1-yl)propyl}oximino]-5-androstene-3β,17β-diol], the melting point was 205 to 206 °C. In addition, half-maximal inhibition against aromatase (CYP19) (IC50) required 12 µM. The “Inhibition on CYP19a RP: Relative potency … (=1)” value at aromatase (CYP19) (setting [1]) is “IC50: 12 μM RP: 2.5”. Also, the “aromatase inhibitory activity (in words)” value at aromatase (CYP19) (setting [2]) is “significant aromatase inhibitory activity”.
`C[C@]12CC[C@H](O)CC1=CC[C@@H]1[C@@H]2CC[C@]2(C)C(=O)[C@@H](n3ccnc3)C[C@@H]12` [Compound 27, 16β-(Imidazol-1-yl)-17-oxo-5-androsten-3β-ol] registered a melting point of 249 to 251 °C. Also, at aromatase (CYP19) (setting [1]), the “Inhibition on CYP19a RP: Relative potency … (=1)” value was “IC50: 3.3 Mm RP: 9.0”. Besides, the “aromatase inhibitory activity (in words)” value on aromatase (CYP19) (setting [2]) is listed as “significant aromatase inhibitory activity”.
